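1) Cells in 96-well plates. 2) Compound, 48 h, 5 concentrations. 3) Linear interpolation between surrounding doses. 4) Unreached endpoint = highest concentration. Abbreviation: GI50, concentration required for 50% inhibition of growth.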 Calls of active or inactive are those of the source. Rule as the data show it: active = GI50 up to about 1.1 µM and inactive = higher.
How the values were obtained:
Test in all cases: NCI anticancer screen, dose series, 48 h
MOLT-4 = tested on: MOLT-4
EKVX = tested on: EKVX
K562 = tested on: K562
RPMI-8226 = tested on: RPMI-8226
NCI-H522 = tested on: NCI-H522
A498 = tested on: A498
786-0 = tested on: 786-0
TK-10 = tested on: TK-10
IGROV-1 = tested on: IGROV-1
KM-20L2 = tested on: KM-20L2
SF-295 = tested on: SF-295
M19-MEL = tested on: M19-MEL
SK-OV-3 = tested on: SK-OV-3
SK-MEL-2 = tested on: SK-MEL-2
SNB-78 = tested on: SNB-78
DLD-1 = tested on: DLD-1
HOP-92 = tested on: HOP-92
KM12 = tested on: KM12
HCT-15 = tested on: HCT-15
HOP-18 = tested on: HOP-18
SK-MEL-5 = tested on: SK-MEL-5
OVCAR-5 = tested on: OVCAR-5
NCI-H23 = tested on: NCI-H23
SNB-75 = tested on: SNB-75
UACC-62 = tested on: UACC-62
UACC-257 = tested on: UACC-257
DMS-273 = tested on: DMS-273
OVCAR-3 = tested on: OVCAR-3
HCC 2998 = tested on: HCC 2998
LOX IMVI = tested on: LOX IMVI
OVCAR-4 = tested on: OVCAR-4
COLO 205 = tested on: COLO 205
SW-620 = tested on: SW-620
SK-MEL-28 = tested on: SK-MEL-28
LXFL 529 = tested on: LXFL 529
SF-539 = tested on: SF-539
U-251 = tested on: U-251
HT-29 = tested on: HT-29
A549 = tested on: A549
OVCAR-8 = tested on: OVCAR-8
M14 = tested on: M14
CCRF-CEM = tested on: CCRF-CEM
CAKI-1 = tested on: CAKI-1
UO-31 = tested on: UO-31
RXF 393 = tested on: RXF 393
SN12C = tested on: SN12C
SR = tested on: SR
HL-60 = tested on: HL-60
HCT-116 = tested on: HCT-116
SNB-19 = tested on: SNB-19
NCI-H460 = tested on: NCI-H460
Malme-3M = tested on: Malme-3M
XF498 = tested on: XF498
ACHN = tested on: ACHN
NCI-H226 = tested on: NCI-H226
HOP-62 = tested on: HOP-62
SF-268 = tested on: SF-268

`COc1ccc(C(C)Nc2cc(OC)c(OC)c(OC)c2)cc1` (configuration not stated) was tested, and the GI50 (MOLT-4) was 4.61 µM (inactive), the GI50 (EKVX) was > 24.9 µM (inactive) and the GI50 (K562) was 2.19 µM (inactive). The GI50 (RPMI-8226) was 3.86 µM (inactive), the GI50 (NCI-H522) was 2.51 µM (inactive) and the GI50 (A498) was 4.45 µM (inactive). For the same compound, the GI50 (786-0) was 6.65 µM (inactive), the GI50 (TK-10) was > 29.7 µM (inactive) and the GI50 (IGROV-1) was 7.13 µM (inactive). For the same compound, the GI50 (KM-20L2) was 2.57 µM (inactive), the GI50 (SF-295) was 2.3 µM (inactive) and the GI50 (M19-MEL) was 4.75 µM (inactive). For the same compound, the GI50 (SK-OV-3) was 4.4 µM (inactive), the GI50 (SK-MEL-2) was 3.01 µM (inactive) and the GI50 (SNB-78) was 4.08 µM (inactive). The GI50 (DLD-1) was 5.81 µM (inactive), the GI50 (HOP-92) was 1.56 µM (inactive) and the GI50 (KM12) was 2.63 µM (inactive). For the same compound, the GI50 (HCT-15) was 3 µM, the GI50 (HOP-18) was > 100 µM (inactive) and the GI50 (SK-MEL-5) was 2.54 µM (inactive). The GI50 (OVCAR-5) was 29.5 µM (inactive), the GI50 (NCI-H23) was 3.72 µM (inactive) and the GI50 (SNB-75) was 5.75 µM (inactive). The GI50 (UACC-62) was 2.91 µM (inactive), the GI50 (UACC-257) was 3.27 µM (inactive) and the GI50 (DMS-273) was 1.82 µM (inactive). For the same compound, the GI50 (OVCAR-3) was 2.69 µM (inactive), the GI50 (HCC 2998) was 10.3 µM (inactive) and the GI50 (LOX IMVI) was 10.9 µM (inactive). For the same compound, the GI50 (OVCAR-4) was 6.43 µM (inactive), the GI50 (COLO 205) was 2.48 µM (inactive) and the GI50 (SW-620) was 2.88 µM (inactive). The GI50 (SK-MEL-28) was 3.24 µM (inactive), the GI50 (LXFL 529) was 6.38 µM (inactive) and the GI50 (SF-539) was 3.1 µM (inactive). The GI50 (U-251) was 2.75 µM (inactive), the GI50 (HT-29) was 3.57 µM (inactive) and the GI50 (A549) was 5.62 µM (inactive). For the same compound, the GI50 (OVCAR-8) was 7.16 µM (inactive), the GI50 (M14) was 6.21 µM (inactive) and the GI50 (CCRF-CEM) was 3.29 µM (inactive). For the same compound, the GI50 (CAKI-1) was 4.23 µM (inactive), the GI50 (UO-31) was 10.5 µM (inactive) and the GI50 (RXF 393) was 3.27 µM (inactive). The GI50 (SN12C) was 7.71 µM (inactive), the GI50 (SR) was 3.1 µM (inactive) and the GI50 (HL-60) was 1.94 µM (inactive). For the same compound, the GI50 (HCT-116) was 3.58 µM (inactive), the GI50 (SNB-19) was > 25.2 µM (inactive) and the GI50 (NCI-H460) was 3.03 µM (inactive). For the same compound, the GI50 (Malme-3M) was 3.68 µM (inactive), the GI50 (XF498) was 6.89 µM (inactive) and the GI50 (ACHN) was 8.87 µM (inactive). For the same compound, the GI50 (NCI-H226) was 14.8 µM (inactive), the GI50 (HOP-62) was 2.88 µM (inactive) and the GI50 (SF-268) was 2.9 µM (inactive).
`Cc1cc([N+](=O)[O-])ccc1Sc1c2ccccc2nc2ccccc12` was tested, and the GI50 (MOLT-4) was 15.7 µM (inactive), the GI50 (EKVX) was 39 µM (inactive) and the GI50 (K562) was 32.1 µM (inactive). For the same compound, the GI50 (NCI-H522) was 18.1 µM (inactive), the GI50 (A498) was > 100 µM (inactive) and the GI50 (786-0) was 23.6 µM (inactive). The GI50 (TK-10) was 57 µM (inactive), the GI50 (IGROV-1) was 28.4 µM (inactive) and the GI50 (KM-20L2) was 31.4 µM (inactive). For the same compound, the GI50 (SF-295) was 39.4 µM (inactive), the GI50 (SK-OV-3) was 31.3 µM (inactive) and the GI50 (SK-MEL-2) was 23.1 µM (inactive). The GI50 (DLD-1) was 25.4 µM (inactive), the GI50 (HOP-92) was 48.3 µM (inactive) and the GI50 (KM12) was 18.5 µM (inactive). The GI50 (HCT-15) was 22.5 µM, the GI50 (HOP-18) was 64 µM (inactive) and the GI50 (SK-MEL-5) was 43.1 µM (inactive). The GI50 (OVCAR-5) was > 100 µM (inactive), the GI50 (NCI-H23) was 33 µM (inactive) and the GI50 (SNB-75) was 39.6 µM (inactive). The GI50 (UACC-62) was 25.1 µM (inactive), the GI50 (UACC-257) was 29.4 µM (inactive) and the GI50 (DMS-273) was 33 µM (inactive). For the same compound, the GI50 (OVCAR-3) was 41.4 µM (inactive), the GI50 (HCC 2998) was 25.4 µM (inactive) and the GI50 (LOX IMVI) was 20 µM (inactive). For the same compound, the GI50 (OVCAR-4) was 57.8 µM (inactive), the GI50 (COLO 205) was 39.9 µM (inactive) and the GI50 (SW-620) was 22.6 µM (inactive). For the same compound, the GI50 (SK-MEL-28) was > 100 µM (inactive), the GI50 (LXFL 529) was 18.7 µM (inactive) and the GI50 (SF-539) was 28.4 µM (inactive). For the same compound, the GI50 (U-251) was 28.5 µM (inactive), the GI50 (A549) was 64.6 µM (inactive) and the GI50 (OVCAR-8) was 29.1 µM (inactive). For the same compound, the GI50 (M14) was 32.6 µM (inactive), the GI50 (CCRF-CEM) was 21.8 µM (inactive) and the GI50 (CAKI-1) was 26.4 µM (inactive). For the same compound, the GI50 (UO-31) was 44.7 µM (inactive), the GI50 (RXF 393) was 57.5 µM (inactive) and the GI50 (SN12C) was 39.6 µM (inactive). The GI50 (SR) was 27.7 µM (inactive), the GI50 (HL-60) was 3.03 µM (inactive) and the GI50 (HCT-116) was 22.5 µM (inactive). The GI50 (SNB-19) was 45.5 µM (inactive), the GI50 (NCI-H460) was 32 µM (inactive) and the GI50 (Malme-3M) was > 100 µM (inactive). The GI50 (XF498) was 17.5 µM (inactive), the GI50 (ACHN) was 48.9 µM (inactive) and the GI50 (NCI-H226) was > 100 µM (inactive). The GI50 (HOP-62) was > 100 µM (inactive) and the GI50 (SF-268) was 41 µM (inactive).
With `O=C(Cn1ccnc1[N+](=O)[O-])c1ccccc1` the GI50 (MOLT-4) was > 100 µM (inactive), the GI50 (EKVX) was > 100 µM (inactive) and the GI50 (K562) was > 100 µM (inactive). For the same compound, the GI50 (RPMI-8226) was > 100 µM (inactive), the GI50 (NCI-H522) was > 100 µM (inactive) and the GI50 (A498) was > 100 µM (inactive). The GI50 (786-0) was > 100 µM (inactive), the GI50 (TK-10) was > 100 µM (inactive) and the GI50 (IGROV-1) was > 100 µM (inactive). For the same compound, the GI50 (KM-20L2) was > 100 µM (inactive), the GI50 (SF-295) was > 100 µM (inactive) and the GI50 (M19-MEL) was > 100 µM (inactive). For the same compound, the GI50 (SK-OV-3) was > 100 µM (inactive), the GI50 (SK-MEL-2) was > 100 µM (inactive) and the GI50 (DLD-1) was > 100 µM (inactive). For the same compound, the GI50 (HOP-92) was > 100 µM (inactive), the GI50 (KM12) was > 100 µM (inactive) and the GI50 (HCT-15) was > 100 µM. The GI50 (SK-MEL-5) was > 100 µM (inactive), the GI50 (OVCAR-5) was > 100 µM (inactive) and the GI50 (NCI-H23) was > 100 µM (inactive). For the same compound, the GI50 (SNB-75) was > 100 µM (inactive), the GI50 (UACC-62) was > 100 µM (inactive) and the GI50 (UACC-257) was > 100 µM (inactive). For the same compound, the GI50 (DMS-273) was > 100 µM (inactive), the GI50 (OVCAR-3) was > 100 µM (inactive) and the GI50 (HCC 2998) was > 100 µM (inactive). The GI50 (LOX IMVI) was > 100 µM (inactive), the GI50 (OVCAR-4) was > 100 µM (inactive) and the GI50 (COLO 205) was > 100 µM (inactive). The GI50 (SW-620) was > 100 µM (inactive), the GI50 (SK-MEL-28) was > 100 µM (inactive) and the GI50 (LXFL 529) was > 100 µM (inactive). The GI50 (SF-539) was > 100 µM (inactive), the GI50 (HT-29) was > 100 µM (inactive) and the GI50 (A549) was > 100 µM (inactive). For the same compound, the GI50 (OVCAR-8) was > 100 µM (inactive), the GI50 (M14) was > 100 µM (inactive) and the GI50 (CCRF-CEM) was > 100 µM (inactive). The GI50 (CAKI-1) was > 100 µM (inactive), the GI50 (UO-31) was > 100 µM (inactive) and the GI50 (RXF 393) was > 100 µM (inactive). The GI50 (SN12C) was > 100 µM (inactive), the GI50 (HL-60) was > 100 µM (inactive) and the GI50 (SNB-19) was > 100 µM (inactive). The GI50 (NCI-H460) was > 100 µM (inactive), the GI50 (Malme-3M) was > 100 µM (inactive) and the GI50 (XF498) was > 100 µM (inactive). The GI50 (ACHN) was > 100 µM (inactive), the GI50 (NCI-H226) was > 100 µM (inactive) and the GI50 (HOP-62) was > 100 µM (inactive). The GI50 (SF-268) was > 100 µM (inactive).

From ChEMBL document CHEMBL1201862, “PubChem BioAssay data set” (2004)
